pIC50: −log10 of the molar value. Read-outs that look alike come from different tables or passages of the source.
Key:
[1] = system: Mia PaCa-2 cells; test: ATP assay (ATP depletion / cell viability) in Mia PaCa-2 cells; format: cell-based, human; details: for IC50/IC50 (β-lapachone/Compoud): Relative activity compare with β-lapachone in ATP depletion of Mia PaCa-2 cells
Method: (§1) In vitro anti-cancer activity of the compound were performed using ATP Assay Kit (Abcam, ab83355) to initially screen, and further performed using 7-day DNA assay.
(§2) Cell culture: endogenous NQO1 overexpressing human MIA PaCa-2 pancreactic and A549 NSCLC cancer cells were obtained (Bey, et al., 2007; Li, et al., 2011). Cancer cells were grown in DMEM with 5% FBS and Mycoplasma free, and cultured at 37° C. in a 5% CO2 95% air humidified atmosphere.
ATP assay: Cells were seeded into each well of a 96-well plate (15000 cells/well) 18 hours ahead of experiment. After aspiration of the media from each well, 100 μl drug-contained media was added instead, and further incubated for 2 hours. After incubation, 100 μl ATP assay kit mixture was added into every well. Following further shaking for 10 minutes with light proof, the data were collected by reading luminescence integrate 1 second per well.

[2] = system: A549 cells; test: Cell viability in A549 cells (7-day DNA assay); format: cell-based, human; details: relative to β-lapachone
Method: as §1, §2
DNA assay: Cells were seeded into each well of a 48-well plate (10000 cells/well) 24 hours ahead of experiment. After aspiration of the media from each well, 500 μl drug-contained media was added instead, and further incubated for 2 hours. Drugs were then removed, control growth medium was added, and cells were allowed to grow for an additional 7 days. Drugs were added to medium at a 1:1000 dilution immediately before administration to cells. DNA content (a measure of cell growth) was determined by fluoresence of the DNA dye Hoescht 33258 (Sigma), and read in a Cytofluor fluoresence plate reader. Data were expressed as relative growth with 6 repetitions.

[3] = system: A549; test: Relative survival DNA assay, A549, with or without dicoumarol; format: cell-based, human; details: for pIC50: read-out: Inhibition of cell survival of DNA assay IC50
Method: (§3) Cell Lines and Culture. Endogenous NQO1 overexpressing human MiaPaca-2 (pancreatic carcinoma), A549 (None-small cell lung carcinoma), and MCF-7 (breast adenocarcinoma) were obtained (Bey, et al., 2007; Li, et al., 2011). All cell lines were grown in DMEM (Life Technologies) containing 5%-10% FBS (Fisher Scientific) in a 5% CO2 and 95% air incubator at 37° C.
(§4) Relative Survival Assays. Relative survival was assessed by DNA content and colony forming assays as described (Dong, et al., 2010). Briefly, for DNA content, cells were seeded at 1×10^4 per well in 48-well plates and allowed to attach overnight. Cells were then mock treated or treated with various doses of naphthaquinones (for 2 hours) in the presence or absence of dicoumarol as indicated. Drug-free medium was then added and cells were allowed to grow for 5 to 7 days until control cells reached ˜100% confluence. DNA content was then determined by Hoechst 33258 staining and fluorescence detection using a plate reader (Perkin-Elmer).

[4] = system: MCF-7; test: Relative survival DNA assay, MCF-7, with or without dicoumarol; format: cell-based, human; details: for pIC50: read-out: Inhibition of cell survival of DNA assay IC50
Method: as §3, §4

[5] = system: MiaPaca 2; test: Relative survival DNA assay, MiaPaca 2, with or without dicoumarol; format: cell-based, human; details: for pIC50: read-out: Inhibition of cell survival of DNA assay IC50
Method: as §3, §4

[6] = system: subcutaneous MiaPaca-2 model; test: In vivo anti-tumor efficacy, nude mice bearing subcutaneous MiaPaca-2 model; design: species or system Athymic Nu/Nu nude female mice; details: subcutaneous MiaPaca-2 tumor model, FIG. 8
Method: Survival and Antitumor Efficacies. 6- to 8-week-old NOD-SCID female mice were tail-vein administrated with luciferase gene-transfected A549 cells (1.0×106), and randomized into groups (n=7-13/group), monitored for tumor formation in the lungs using bioluminescence (BLI) following treatment with vehicle, β-lap-HPβCD, or NQ-059-HPβCD. An average of 1.0×10^7 total photons was used before any therapies were given as described (Huang, et al., 2012). Animals were treated with vehicle, β-lap-HPβCD (20 mg/kg), or NQ-059-HPβCD (15 and 12 mg/kg) via tail vein and repeated five times every 3 days. Tumor-bearing mice were imaged using BLI to estimate relative tumor volumes as described (Ma, et al., 2015) using D-luciferin (Promega, 2.5 mg, subcutaneously injected). Relative tumor volume estimates were derived from BLI images of mice captured using a Xenogen Vivovision IVIS Lumina Imager (60 s exposure time). Animals were monitored daily for survival and morbidity. Mortality was recorded over times as a result of cancer-related deaths or drug-related toxicities (≥20% body weight loss relative to the start of therapy). Athymic Nu/Nu nude female mice (18-20 grams) were commercially obtained (Harlan). […] Tumors were measured at indicated times with digital calipers (Fisher Scientific), and tumor volumes calculated (length×width^2×0.5). […]

[7] = system: H596; test: Relative survival DNA assay, H596 (low NQO1 expression); format: cell-based; details: H596 (low NQO1 expression), Vehicle; read-out: Inhibition of cell survival of DNA assay IC50
Method: as §4

[8] = system: orthotopic A549 model; test: In vivo anti-tumor efficacy, NOD-SCID mice bearing orthotopic A549 model; details: for Tumor growth via bioluminescence imaging: β-lap-HPβCD 20 mg/kg
Method: Formulation. β-lap-HPβCD formulation was prepared according to our previous report.^14 NQ-059 and HPβCD (1:45, w/w) were dissolved in EtOH, and then concentrated in vacuo to form a thin film or a sponge-like film. PBS was added, and a clear solution was formed with shaking. Immediately filtration through a Ø 0.45 µm filter (Whatman), a stable solution was afforded, whose concentration was quantified by UV-vis at 256 nm.
Survival and Antitumor Efficacies. 6- to 8-week-old NOD-SCID female mice were tail-vein administrated with luciferase gene-transfected A549 cells (1.0×106), and randomized into groups (n=7-13/group), monitored for tumor formation in the lungs using bioluminescence (BLI) following treatment with vehicle, β-lap-HPβCD, or NQ-059-HPβCD. An average of 1.0×10^7 total photons was used before any therapies were given as described (Huang, et al., 2012). Animals were treated with vehicle, β-lap-HPβCD (20 mg/kg), or NQ-059-HPβCD (15 and 12 mg/kg) via tail vein and repeated five times every 3 days. Tumor-bearing mice were imaged using BLI to estimate relative tumor volumes as described (Ma, et al., 2015) using D-luciferin (Promega, 2.5 mg, subcutaneously injected). Relative tumor volume estimates were derived from BLI images of mice captured using a Xenogen Vivovision IVIS Lumina Imager (60 s exposure time). Animals were monitored daily for survival and morbidity. Mortality was recorded over times as a result of cancer-related deaths or drug-related toxicities (≥20% body weight loss relative to the start of therapy). Athymic Nu/Nu nude female mice (18-20 grams) were commercially obtained (Harlan). Human xenografts were generated by injecting 2×10^6 MiaPaca-2 cells subcutaneously in PBS/Matrigel into 6-week-old mice. Tumors were measured at indicated times with digital calipers (Fisher Scientific), and tumor volumes calculated (length×width^2×0.5). Treatments were initiated when subcutaneous tumors reached an average size of >100 mm (Cao, et al., 2003).

Structure (SMILES) | IC50/IC50 (β-lapachone/Compoud) [1] | IC50/IC50 (β-lapachone/Compoud) [2] | further results
CC(C)OC1=CC(=O)C(=O)c2cc(Cl)ccc21 [Compound 4, 7-chloro-4-isopropoxynaphthalene-1,2-dione] | 1~2 | 1~2 | 
CC(C)OC1=CC(=O)C(=O)c2c(NS(C)(=O)=O)cccc21 [Compound 21, N-(5-isopropoxy-7,8-dioxo-7,8-dihydronaphthalen-1-yl)methanesulfonamide] | >3 | >3 | DNA amount in survival assay relative to β-lapachone ([3]; A549, FIGS. 4G-4I): decreased DNA amounts at lower concentrations relative to β-lapachone; DNA amount in survival assay relative to β-lapachone ([4]; MCF-7, FIGS. 4D-4F): decreased DNA amounts at lower concentrations relative to β-lapachone; DNA amount in survival assay relative to β-lapachone ([5]; MiaPaca 2, FIGS. 4A-4C): decreased DNA amounts at lower concentrations relative to β-lapachone
CCCCCCOC1=CC(=O)C(=O)c2c(NC(C)=O)cccc21 [Compound 28, N-(5-(hexyloxy)-7,8-dioxo-7,8-dihydronaphthalen-1-yl)acetamide] | 1~2 | 1~2 | 
CC(C)OC1=CC(=O)C(=O)c2ccc(Cl)cc21 [Compound 34, 6-chloro-4-isopropoxynaphthalene-1,2-dione] | 1~2 | 0.3~1 | 
CC(C)OC1=CC(=O)C(=O)c2cc(Cl)c(Cl)cc21 [Compound 37, 6,7-dichloro-4-isopropoxynaphthalene-1,2-dione] | 1~2 | 0.3~1 | 
CC(C)OC1=CC(=O)C(=O)c2c(O)cccc21 [Compound 38, 8-hydroxy-4-isopropoxynaphthalene-1,2-dione] | 1~2 | 1~2 | 
COCCOCCOCCOCCOC1=CC(=O)C(=O)c2c(NC(C)=O)cccc21 [Compound 48, N-(5-(2,5,8,11-tetraoxatridecan-13-yloxy)-7,8-dioxo-7,8-dihydronaphthalen-1-yl)acetamide] | >3 | >3 | 
COCCOCCOC1=CC(=O)C(=O)c2c(NC(C)=O)cccc21 [Compound 49, N-(5-(2-(2-methoxyethoxy)ethoxy)-7,8-dioxo-7,8-dihydronaphthalen-1-yl)acetamide] | 0.3~1 | 0.3~1 | 
CC1(C)CCC2=C(O1)c1ccccc1C(=O)C2=O [β-lapachone, reference compound] |  |  | pIC50 ([3]; A549, Dic (dicoumarol, NQO1 inhibitor)): < 5.00; pIC50 ([3]; A549, Vehicle): 5.31; pIC50 ([1]; MiaPac-2, Vehicle, read-out: Inhibition of cell viability of ATP assay IC50): 5.55; Tumor volume relative to the vehicle [6]: did not; pIC50 [7]: < 5.00; pIC50 ([4]; MCF-7, Dic (dicoumarol, NQO1 inhibitor)): 5.04; pIC50 ([4]; MCF-7, Vehicle): 5.68; pIC50 ([5]; MiaPaca 2, Dic (dicoumarol, NQO1 inhibitor)): < 5.00; pIC50 ([5]; MiaPaca 2, Vehicle): 5.36; Tumor growth via bioluminescence imaging ([8]; after 74 days): some tumor growth; Tumor growth via bioluminescence imaging ([8]; after day 44): some minor tumor growth; Survival relative to vehicle ([8]; orthotopic A549, FIG. 7C): small improvement over vehicle

— patent US10829427B2, “Naphthoquinones, pro-drugs, and methods of use thereof” (The Board of Regents of the University of Texas System, priority 2015, dated 2020)
